One substance from publication PMC12856317, “A reversible feedback mechanism regulating mitochondrial heme synthesis” (The Journal of Biological Chemistry, 2025) can be followed below.

Experiment [1] deals with T1, human ALAS2 ΔN (residues 75–587) (Homo sapiens, UniProt P22557).
T1 construct: a truncation without HRM3 (ΔN, residues 75–587); His6-SUMO (N, cleaved yes); made in house; host or cells: Escherichia coli BL21-Codon Plus (DE3)-RIL
T1 sequence (P22557 75-587): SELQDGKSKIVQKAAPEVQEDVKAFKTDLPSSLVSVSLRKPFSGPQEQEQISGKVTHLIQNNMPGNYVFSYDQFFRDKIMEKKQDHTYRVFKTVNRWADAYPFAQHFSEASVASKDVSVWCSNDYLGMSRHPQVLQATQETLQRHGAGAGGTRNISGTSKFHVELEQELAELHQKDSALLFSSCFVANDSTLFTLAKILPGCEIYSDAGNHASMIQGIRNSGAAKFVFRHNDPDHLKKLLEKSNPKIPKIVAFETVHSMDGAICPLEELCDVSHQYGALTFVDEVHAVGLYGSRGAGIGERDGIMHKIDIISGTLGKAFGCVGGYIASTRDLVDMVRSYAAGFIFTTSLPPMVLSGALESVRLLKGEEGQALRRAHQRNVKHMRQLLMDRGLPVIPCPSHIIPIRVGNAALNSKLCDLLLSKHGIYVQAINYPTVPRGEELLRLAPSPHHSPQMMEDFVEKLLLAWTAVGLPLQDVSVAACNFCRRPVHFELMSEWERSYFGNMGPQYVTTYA
The experiment is described as follows: Isothermal titration calorimetry, hemin-protein interaction. The class given is binding. To be noted: ITC, 25 °C. On the procedure:
Binding curves of the hemin-protein interaction were determined using Nano-ITC instrument (TA instruments) at 25 °C. Hemin was dissolved in 1 M NaOH and autoclaved to prepare a stock solution of 746 μM, ε385nm = 58,440 M^−1 cm^−1. The stock solution was diluted to 1.5 μM in titration buffer containing 25 mM Hepes, pH 7, 150 mM KCl, and 0.5 mM TCEP. Protein samples were dialyzed into the titration buffer and diluted to a final concentration of 40 μM. Fixed volumes of protein were injected at 200-s intervals into the cell containing hemin. An A + B hetero-association model was used to determine the thermodynamic parameters for each variant. Data were integrated and analyzed using NITPIC and SEDPHAT and visualized using GUSSI ([71], [72], [73]).

In experiment [2] the target is T2, WT holoALAS2 (residues 54–587) (Homo sapiens, UniProt P22557).
T2 construct: His6-SUMO (N, cleaved yes); made in house; host or cells: Escherichia coli BL21-Codon Plus (DE3)-RIL
T2 sequence (P22557 54-587): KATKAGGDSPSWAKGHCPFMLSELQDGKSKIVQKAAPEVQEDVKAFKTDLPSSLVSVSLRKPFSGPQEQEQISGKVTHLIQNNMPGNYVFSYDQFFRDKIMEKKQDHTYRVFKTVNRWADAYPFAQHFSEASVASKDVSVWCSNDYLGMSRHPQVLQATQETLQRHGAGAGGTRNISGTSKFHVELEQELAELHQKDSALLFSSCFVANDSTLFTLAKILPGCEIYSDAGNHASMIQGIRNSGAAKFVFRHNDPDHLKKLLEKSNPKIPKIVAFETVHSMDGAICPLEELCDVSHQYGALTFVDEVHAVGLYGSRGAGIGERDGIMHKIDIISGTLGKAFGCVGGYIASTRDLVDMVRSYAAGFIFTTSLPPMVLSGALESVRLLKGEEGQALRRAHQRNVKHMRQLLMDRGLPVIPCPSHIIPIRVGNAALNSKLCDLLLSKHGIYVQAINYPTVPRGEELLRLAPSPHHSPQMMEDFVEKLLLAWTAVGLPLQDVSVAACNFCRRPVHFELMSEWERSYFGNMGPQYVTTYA
The experiment is described as follows: Succinyl-CoA:hemin competition analysis. Type of experiment: biochemical. Conditions: WT holoenzyme. As to the method: A discontinuous colorimetric activity assay adapted from Shoolingin-Jordan et al. and Bailey et al. was used to measure the enzyme activity ([48], [74]). The reaction was initiated by adding 100 nM purified enzyme to 50 mM potassium phosphate, pH 7.0, 10 mM MgCl2, 1 mM DTT, 100 mM glycine, and 300 μM succinyl-CoA (175 μl total). The reaction was incubated at 37 °C for 15 min and terminated with 100 μl of cold 10% trichloroacetic acid. The precipitated protein was removed by centrifugation for 5 min at 13,000g, and 240 μl of the supernatant was mixed with 240 μl of 1 M sodium acetate, pH 4.6. To derivatize ALA, 20 μl of acetylacetone was added to the mixture and boiled at 100 °C for 10 min. After the sample was cooled for 20 min, 100 μl aliquots were transferred into a clear 96-well plate in triplicate. An equal volume of Ehrlich’s reagent (p-Dimethylaminobenzaldehyde, DMAB) was added to each well, and the absorbance was monitored at 553 nm using a microplate reader (Thermo Fisher Scientific). The peak absorbance value was converted to molar ALA concentration using ε553 = 60,400 M^−1 cm^−1.
For inhibitor competition experiments, the apoenzymes were preincubated with hemin or PLP (0–100 μM) for 15 min at 25 °C in the dark before initiating the reaction. Next, either PLP or hemin (0–100 μM) was titrated into the reactions to measure enzyme activation after hemin inhibition or enzyme inhibition of the PLP-treated apoenzyme, respectively. For succinyl-CoA:hemin competition analyses, the WT holoenzyme was mixed with hemin (0, 25, 50, and 100 μM), followed by the addition of increasing succinyl-CoA concentrations (0, 25, 50, 100, 250, and 500 μM). All experiments were performed with a minimum of three biological replicates, each with three technical replicates. Data were fit using nonlinear regression to generate an agonist dose-response curve (EC50) or an inhibitor dose-response curve (IC50). Lineweaver-Burk analysis was performed using the resulting kinetic parameters (Vmax and KM) in GraphPad Prism 10.

[3] abbreviates: 95% confidence interval in brackets.

Take ferric chloride heme [hemin]: in experiment [1], the ΔG is -8.50 kcal/mol and the ΔS was −3.35 kcal/mol K. Also, in experiment [1] (setting [3]), the Kd worked out at 589 nM and the ΔH was −1006 [−1432, −810] kcal/mol. Further, in experiment [2] (heme versus no heme, varied succinyl-CoA), the “fold lower Vmax” value was determined as 8 fold. The mode of inhibition entry in experiment [2] (varied succinyl-CoA and heme) is listed as “uncompetitively”.
